We go through 14 molecules from PMC10673250, “Exploring Alkyl Ester Salts of L-Amino Acid Derivatives of Ibuprofen: Physicochemical Characterization and Transdermal Potential” (Molecules, 2023).

≈ marks a conversion by molar mass, not a printed value. Where “and” joins values, the source holds several entries; their conditions need not be identical. Identical values can stand only once. Counter-ions that a name gives are not always drawn. Like-named read-outs stand apart in the source and are kept apart here.

The conditions of series [1]: pig skin, concentration 0.01 g·cm^−3; cited from earlier work.
Series [2] is described as follows: Accumulation in the skin after the permeation test, in vitro. The format is in vitro ADME, pig. The note with it: after 24 h permeation; for accumulation in pig skin: mean ± SD, n = 3. As to the method:
After completing the permeation test, the skin was removed from the Franz chamber, then washed with 0.5% sodium lauryl sulfate solution and dried with a paper towel. After being thoroughly air-dried, the leather was cut into pieces and extracted with 2 cm^3 of methanol for 24 h at 4 °C. Then, the samples were homogenized using a homogenizer (IKA®T18 digital ULTRA TURRAX, Staufen, Germany) for 3 min and centrifuged at 3500 rpm·min^−1 for 5 min. After centrifugation, the solution was analyzed by HPLC. The accumulation of IBU and its salts in pig skin was calculated by dividing the amount of substance remaining in the samples by the weight of the skin sample and it was expressed as the weight of IBU per gram of skin (µg IBU·g^−1).

Series [3] is described as follows: Permeability of the active substance through pig skin, Franz diffusion chambers, in vitro. Conditions: for Jss, steady-state flux: 1% IBU in 70% ethanol, 37 °C; for Jss, steady-state flux / Q%24h, the percentage of the applied dose / LT, lag time / CMP (cumulative permeation mass): n = 3; for Q%24h, the percentage of the applied dose / CMP (cumulative permeation mass): 24 h.
Protocol: Tests for the penetration of the active substance through pig skin were performed using Franz diffusion chambers (Phoenix DB-6, ABL&E-JASCO, Vienna, Austria) with diffusion areas of 1 cm^2 according to the modified method [15].
Pig skin obtained from the belly was purchased from a local slaughterhouse. The outer layer, 0.5 mm thick, was then removed using a dermatome and cut into 2 cm × 2 cm pieces. Before use in the study, the skin was soaked in buffered saline (PBS) solution at pH 7.4.
Skin impedance assessment was performed using an LCR meter 4080 (Voltcraft LCR 4080, Conrad Electronic, Hirschau, Germany), which was operated in parallel mode at an alternating frequency of 120 Hz (error for kΩ values < 0.5%). The measurements were made by placing the tips of the measurement probes in the donor and acceptor chambers, separated by a skin sample. Both chambers were filled with PBS buffer pH 7.4. Skin samples with an impedance > 3 kΩ were used for testing, which corresponds to the electrical resistance of human skin [15, 18].
The acceptor chamber with a capacity of 10 cm^3 was filled with PBS solution (pH 7.4). A total of 1 cm^3 of a solution of ibuprofen or L-amino acid alkyl ester ibuprofenate with a concentration of 1% based on the active substance (ibuprofen) in 70% ethanol was placed in the acceptor chamber.
The experiment was conducted for 24 h at 37 °C. After 0.5 h, 1 h, 2 h, 3 h, 4 h, 5 h, 8 h, and 24 h from the start of the permeation experiment, 0.5 cm^3 samples of the acceptor fluid were taken, respectively, and refilled with fresh PBS solution. The content of ibuprofen or its salts in the acceptor liquid was determined by HPLC. Based on this concentration, the cumulative mass expressed as ibuprofen was calculated (µg IBU·cm^−2) [3, 19, 20, 21, 22].
The constant flow coefficient (in µg IBU·cm^−2·h^−1) through the pig skin into the acceptor fluid was determined as the slope of the plot of accumulated mass in the acceptor fluid as a function of time.
Steady-state flow was estimated from the slope of the linear part of the plot of accumulated mass in the acceptor phase over time. The lag time (LT) was determined based on the x-intercept of the linear part of the graph of accumulated mass in the acceptor phase over time. It was then used to calculate the permeability coefficient Kp using Equation (6):(6) Kp=Jss/C where: • C—concentration in the donor phase (µg·cm^−3).
The diffusion coefficient (D) was calculated based on Equation (7):(7) D=I^2/6·LT where: • I—diffusion path, skin thickness (mm).
The skin partition coefficient (Km) was calculated based on Equation (8):(8) Km=Kp·I/D

Series [4] in a line: Partition coefficient n-octanol/water (shake-flask, HPLC). The format is physicochemical. Conditions: 25 °C. As for the experimental part: For L-glutamic acid alkyl ester ibuprofenates, the partition coefficient was determined using n-octanol/water extraction. For this purpose, 10 mg of the substance, weighed with an accuracy of 0.01 mg, was mixed with 5 cm^3 of water saturated with n-octanol and 5 cm^3 of n-octanol saturated with water. The mixture was stirred vigorously at 25 °C for 3 h and then centrifuged at 7500 rpm·min^−1 at 25 °C for 10 min to separate the phases. The phases were then separated. The concentration of the compound was determined in the aqueous layer using the HPLC method (standard curve method).
The partition coefficient log P was calculated based on Equation (3):(3) logP=logcoct−logcw where: • cw and coct are the concentrations (mg·dm^−3) of the solute in the aqueous and octanol layers.
The concentration of the compound dissolved in octanol was calculated from Equation (4):(4) coct=c0−cw where: • c0 is the concentration of the compound calculated based on sample weights prepared for analysis.
The concentration of the substance in the aqueous layer was determined using the SHIMADZU Nexera-i LC-2040C 3D High Plus high-performance liquid chromatography method with a DAD/FLD detector. A mixture of 50% acetonitrile and 50% water was used as the moving fluid under isocratic conditions at a 1 cm^3·min^−1 flow rate. A Kinetex® 2.6 µm F5 100 Å column heated to 35 °C with dimensions of 150 × 4.6 mm^2 from Phenomenex was used. The spectra were recorded at a wavelength of 210 nm. The injection volume for these samples was 50 mm^3. Each measurement was performed three times, and the results were averaged. The concentration of ibuprofen and its salts was calculated from peak area measurements using the calibration curve method (Figure 8). The results were analyzed using LabSolutions/LC Solution System.

A short description of series [5]: Solubility in water (saturated solutions, HPLC). In kind it is physicochemical. Conditions: water at 25 °C. As for the experimental part: Water solubility was determined by obtaining saturated solutions of the obtained ibuprofenates. For this purpose, the appropriate amount of ibuprofen salt was weighed in a vial, poured with deionized water, and stirred vigorously on a magnetic stirrer at 25 °C for 24 h. After this time, the mixture was filtered using a syringe filter made of MCE (mixed cellulose esters) with a pore diameter 0.45 µm. Then, the filtrate was diluted one hundred times with acetonitrile: water solution (1:1). The concentration of the compound was determined by the HPLC method described in Section 3.2.9.

For series [6] the following is noted: administered on an empty stomach, 71 healthy adults; cited from earlier work.
Series [7] in a line: Thermogravimetric analysis (thermal stability). In kind it is physicochemical. As for the experimental part:
Thermal stability was assessed using thermogravimetric studies performed on a […]1 Libra thermomicrobalance (Selb, Germany). The test was carried out in an oxidizing environment, with the flow of nitrogen (protective gas): 10 cm^3·min^-1, air: 25 cm^3·min^-1 in the temperature range from 25 to 1000 °C. Samples weighing approximately 5 mg were heated at 10 °C·min^-1. The decomposition onset temperature (Tonset) was calculated using the intersection of the tangents of the TG curve. The fastest decomposition temperatures (Tmax) were calculated using the first TG curve (DTG curve) derivative.

Setting [8] is: in terms of the active substance (ibuprofen).
Setting [9] is: TG, oxidizing environment, 10 °C·min^−1.

The term logP denotes a log measure of how a compound divides between an organic and an aqueous phase. Low values mean a more hydrophilic compound, high ones a more lipophilic compound. For orientation: solubility means the dissolved amount per volume that the medium holds. For `CC(C)Cc1ccc(C(C)C(=O)O)cc1` (racemic) [IBU, (RS)-2-[4-(2-methylpropyl)phenyl]propionic acid, reference compound], the skin penetration rate in series [1] is 6%. For the same molecule, the “accumulation in pig skin” value in series [2] amounted to 1057.468 ± 200.589 µg IBU·g^−1 pig skin. Further, in series [3], the “Jss, steady-state flux” value is 26.539 ± 0.320 µg IBU·cm^−2·h^−1; the “Q%24h, the percentage of the applied dose” value (“Q%24h, the percentage” below) is reported as 0.302 ± 0.038%; the “LT, lag time” value stood at 0.153 ± 0.029 h. In series [3] (n = 3, value is D·10^4), the “D·10^4, diffusion coefficient” value was 27.926 ± 5.802 cm^2·h^−1. This molecule had a logP in series [4] of 3.37. This molecule also registered a solubility at 24 h in series [5] (deionized water, as compound) of 75 ± 1 µg/mL (≈ 364 µM). In addition, in series [5] (setting [8]), the “Solubility in Water” value was determined as 0.075 ± 0.001 g IBU·dm^−3.
Turning to `CC(C)Cc1ccc(C(C)C(=O)[O-])cc1.[Na+]` (stereo not drawn) [IBUNa], the “Cmax higher compared to rac-IBU” value in series [6] was “approximately 30%”.
In the case of `CCCCOC(=O)CCC(N)C(=O)OCCCC` (stereo not drawn) [[Glu(OBu)2][HCl]], the “Tonset, the onset temperature of the thermal degradation” value (“Tonset, the onset temperature” for short) in series [7] (setting [9]) was 172.8 °C.
In general, log P refers to a log measure of how a compound divides between an organic and an aqueous phase. Turning to `CC(C)Cc1ccc(C(C)C(=O)O)cc1.CCCCOC(=O)C(N)CCC(=O)O` (stereo not drawn) [[Glu(OBu)][IBU]], in series [2], the “accumulated mass relative to ibuprofen” value was “approximately 90%” and the “accumulation in pig skin” value worked out at 931.823 ± 93.449 µg IBU·g^−1 pig skin. Further, the “Tonset, the onset temperature” value in series [7] is 206.8 °C. Further, in series [3], the “Jss, steady-state flux” value came to 32.282 ± 7.809 µg IBU·cm^−2·h^−1; the “CMP (cumulative permeation mass)” value was 0.109 ± 0.004 g IBU·dm^−3; the “Q%24h, the percentage” value was found to be 0.452 ± 0.026%; the “LT, lag time” value was 0.102 ± 0.069 h. In addition, in series [4], the “log P” value came out at 3.000 ± 0.010. In addition, the “Solubility in Water” value in series [5] (as compound) was determined as 0.217 ± 0.007 g·dm^−3. Moreover, in series [5] (setting [8]), the “Solubility in Water” value is reported as 0.109 ± 0.004 g IBU·dm^−3.
Turning to `CCOC(=O)CCC(N)C(=O)OCC` (stereo not drawn) [[Glu(OEt)2][HCl]], the “Tonset, the onset temperature” value in series [7] (setting [9]) was 168.3 °C.
As for `CC(C)Cc1ccc(C(C)C(=O)O)cc1.CCOC(=O)C(N)CCC(=O)O` (stereo not drawn) [[Glu(OEt)][IBU]], in series [7], the “Tonset, the onset temperature” value turned out to be 194.2 °C. In addition, in series [3], the “Jss, steady-state flux” value came to 30.855 ± 6.617 µg IBU·cm^−2·h^−1; the “CMP (cumulative permeation mass)” value is 0.100 ± 0.001 g IBU·dm^−3; the “Q%24h, the percentage” value was determined as 0.566 ± 0.005%; the “LT, lag time” value is 0.029 ± 0.050 h. In addition, the “permeation rate difference compared to [Glu(OPent)][IBU]” value in series [3] (after 24 h) is “approximately 0.5 μg∙h^−1”. In series [4], the “log P” value was 2.37 and 2.374 ± 0.001. In addition, in series [5] (as compound), the “Solubility in Water” value was found to be 0.185 ± 0.003 g·dm^−3. The “Solubility in Water” value in series [5] (setting [8]) turned out to be 0.100 ± 0.001 g IBU·dm^−3.
Regarding `CCCCCOC(=O)CCC(N)C(=O)OCCCCC` (stereo not drawn) [[Glu(OPent)2][HCl]], the “Tonset, the onset temperature” value in series [7] (setting [9]) is 169.5 °C.
Consider `CC(C)Cc1ccc(C(C)C(=O)O)cc1.CCCCCOC(=O)C(N)CCC(=O)O` (stereo not drawn) [[Glu(OPent)][IBU]], for which, in series [2], the “accumulation in pig skin” value came to 625.895 ± 87.275 µg IBU·g^−1 pig skin. Besides, in series [7], the “Tonset, the onset temperature” value was found to be 206.9 °C. In series [3], the “Jss, steady-state flux” value was 57.098 µg IBU·cm^−2·h^−1 and 57.098 ± 29.761 µg IBU·cm^−2·h^−1; the “CMP (cumulative permeation mass)” value was 0.101 ± 0.012 g IBU·dm^−3; the “Q%24h, the percentage” value amounted to 0.582 ± 0.047%. Further, the “permeation rate relative to ibuprofen” value in series [3] (within the first two hours) was “twice as high as ibuprofen”. Moreover, the “log P” value in series [4] is 2.459 ± 0.002. Also, the “Solubility in Water” value in series [5] (as compound) amounted to 0.208 ± 0.024 g·dm^−3. The “Solubility in Water” value in series [5] (setting [8]) was 0.101 ± 0.012 g IBU·dm^−3.
In the case of `CC(C)Cc1ccc(C(C)C(=O)O)cc1.CCCOC(=O)C(N)CCC(=O)O` (stereo not drawn) [[Glu(OPr)][IBU]], the “Tonset, the onset temperature” value in series [7] was determined as 199.7 °C. In series [3], the “Jss, steady-state flux” value is 26.451 ± 2.253 µg IBU·cm^−2·h^−1; the “CMP (cumulative permeation mass)” value came to 0.120 ± 0.004 g IBU·dm^−3; the “Q%24h, the percentage” value amounted to 0.506 ± 0.008%. In series [4], the “log P” value amounted to 2.380 ± 0.003. For the same molecule, the “Solubility in Water” value in series [5] (as compound) is 0.230 ± 0.007 g·dm^−3. Moreover, in series [5] (setting [8]), the “Solubility in Water” value is 0.120 ± 0.004 g IBU·dm^−3.
As to `CC(C)OC(=O)CCC(N)C(=O)OC(C)C` (stereo not drawn) [[Glu(OiPr)2][HCl]], in series [7] (setting [9]), the “Tonset, the onset temperature” value was found to be 174.4 °C.
Regarding `CC(C)Cc1ccc(C(C)C(=O)O)cc1.CC(C)OC(=O)C(N)CCC(=O)O` (stereo not drawn) [[Glu(OiPr)][IBU]], in series [7], the “Tonset, the onset temperature” value is 222.9 °C. In addition, in series [3], the “Jss, steady-state flux” value was found to be 23.298 ± 3.459 µg IBU·cm^−2·h^−1 and the “Q%24h, the percentage” value stood at 0.373 ± 0.0175%. The “penetrated better than ibuprofen” value in series [3] (versus ibuprofen) is about 40%. Moreover, the “log P” value in series [4] worked out at 2.860 ± 0.007. Moreover, the “solubility relative to ibuprofen (standard)” value in series [5] (per active mass of ibuprofen) is listed as “approximately three times higher”. Further, in series [5] (as compound), the “Solubility in Water” value was determined as 0.390 ± 0.011 g·dm^−3. In series [5] (setting [8]), the “Solubility in Water” value was found to be 0.203 ± 0.006 g IBU·dm^−3.
Consider `CCCOC(=O)CCC(N)C(=O)OCCC` (stereo not drawn) [[Glu(Opr)2][HCl]], for which the “Tonset, the onset temperature” value in series [7] (setting [9]) worked out at 170.5 °C.
The same measure, in the same setting: in the case of `CCC(C)OC(=O)CCC(N)C(=O)OC(C)CC` (stereo not drawn) [[Glu(Osec-Bu)2][HCl]] it was 181.5 °C.
Regarding `CC(C)Cc1ccc(C(C)C(=O)O)cc1.CCC(C)OC(=O)C(N)CCC(=O)O` (stereo not drawn) [[Glu(Osec-Bu)][IBU]], in series [7], the “Tonset, the onset temperature” value was found to be 204.2 °C. For the same molecule, in series [3], the “Jss, steady-state flux” value stood at 22.296 ± 1.398 µg IBU·cm^−2·h^−1; the “CMP (cumulative permeation mass)” value was 0.093 ± 0.012 g IBU·dm^−3; the “Q%24h, the percentage” value is given as 0.456 ± 0.048%. In series [4], the “log P” value came to 3.191 ± 0.007. In addition, the “Solubility in Water” value in series [5] (as compound) is 0.185 ± 0.024 g·dm^−3. The “Solubility in Water” value in series [5] (setting [8]) is recorded as 0.093 ± 0.012 g IBU·dm^−3.
